Experimental findings from patent US9801844B2, “Methods and compositions for the treatment of cancer” (priority 2012, dated 2017) are described below.

SMILES strings stand for the structures. “And” between values parts separate entries of the source, which are not always exact repeats. Equal entries are not always repeated.

What all share (type): cell-based
One assay relates to SUM149 cells. As to the kind of experiment: Real-time RT-PCR of specific mRNAs in SUM149 cells. The conditions noted are these: 4 μg/ml, 6 h. The method, then:
Real-time RT-PCR analysis was performed on 2 technical replicates of at least 2 biological sample replicates.
Real-time quantitative RT-PCR methods were used to determine the nature of the RNA induced by treatment with CA, using the Real Time PCR machine Stratagene MX3005P QPCR System.
Real-time RT-PCR analysis was performed to examine the mode of action of CA. In MDA-MB-468 cells, CA at 4 μg/ml induced an increase in expression of RNA of the tumor suppressor gene CDKN1A; for MDA-MB-468 cells (6 h: 1.51-logfold; 24 h: 1.61-logfold) (FIG. 3A); for SUM149 cells (6 h: 2.7-logfold). CA had little effect on the expression of the tumor suppressor gene BRCA1.
On the technique in general: In qPCR the cycle at which signal appears reflects the starting amount.

Assay [1] has as its system SKOV3 (Her2 overexpressing) human ovarian cancer cells. Kind of assay: MTT cell proliferation assay on SKOV3 cells. The conditions noted are these: SKOV3, 96 h. The procedure: SKOV3 (Her2 overexpressing) ovarian cancer cells (ATCC, Manassas, Va.), were grown in McCoy's media (Gibco BRL Life Technologies, Inc., Rockville, Md.) containing 10% (v/v) fetal bovine serum (FBS) (Gibco BRL) at 37° C., 5% C02, plus Penn-Strep (Sigma).
The MTT [3-(4,5-dimethyl-2-thiazol)-2,5-diphenyl-2H tetrazolilum bromide] (Dojindo; Tokyo, Japan) cell proliferation assay system (Roche Diagnostic, Mannheim, Germany) was used to determine the sensitivity of the cell lines to agents. Cells were seeded at 1×10^4 cells/well in 96-well plates and allowed to attach for 24 h. The medium was replaced with fresh medium containing DMSO or compound. The cells were treated for 96 h, after which the media was replaced with fresh media; the cells were incubated with MTT reagents and the absorbance read at 650 and 575 nm. The 650 reading was subtracted from the 575 reading to correct for background absorbance.

Assay [2] deals with HT29 human colon cancer cells. As to the kind of experiment: Proliferation assay (MTT) on HT29 cells. The conditions noted are these: 1 μg/ml, HT29, 96 h. The procedure:
The HT29 cells were maintained in McCoy's Media containing 10% (v/v) fetal bovine serum (FBS) (Gibco BRL) at 37° C., 5% C02.
MTT assay: the MTT {3-(4,5-dimethyl-2-thiazol)-2,5-diphenyl-2H tetrazolilum bromide} (Dojindo; Tokyo, Japan) cell proliferation assay system (Roche Diagnostic, Mannheim, Germany) was used to determine the sensitivity of the various cell lines to agents. Cells were seeded at 1×10^4 cells/well in 96-well plates and allowed to attach for 24 h. The medium was replaced with fresh medium containing DMSO or compound. The cells were treated for 96 or 120 h, after which they were incubated with MTT reagents and the absorbance read at 650 and 575 nm. For cell growth assays, the data are expressed as mean+/−standard deviation. Control and treated cells were compared using the student's t-test (p<0.05).
HT29 (p53 positive human colon cancer cells), as well as MDA-MB-453 Her2 overexpressing ER-negative human breast cancer cells are treated with increasing concentrations of the liposome carnosic acid complex and carnosic acid.
Cells were exposed to increasing concentrations of agents for 96 h and the number of viable cells determined by the MTT assay.

In the case of `CC(C)c1cc2c(c(O)c1O)[C@@]1(C(=O)O)CCCC(C)(C)[C@@H]1CC2` [carnosic acid], the “increase in expression of RNA of CDKN1A” value with SUM149 cells is recorded as 2.7 logfold. For the same compound, the “% cell proliferation” value is reported as 105.3% in assay [1] (5 μg/ml), 56.7% in assay [1] (10 μg/ml), 8.1% in assay [1] (15 μg/ml) and 6.7% in assay [1] (20 μg/ml). For the same compound, the IC50 in assay [1] (Homo sapiens, SK-OV-3, MTT, read-out: IC50, concentration that caused 50% inhibition of cell growth) was ~10.5 µg/mL and ~31.6 µM. For the same compound, in assay [2], the “% proliferation” value came to 99.3%.
